Legend:
[1] = tested on: circulating endothelial progenitor cells (EPCs); experiment: Concentration of circulating EPCs (CD34/AC133 double positive) in peripheral blood by flow cytometry after oral Vardenafil 20 mg, placebo crossover; format: in vivo, human; conditions: healthy men, mean±SD
Protocol: 10 healthy men without cardiovascular risk factors were selected for the study. The ages of the 10 men ranged from 21 to 25 years. Blood samples taken for the purposes of the study were evaluated by flow cytometry, as previously described (Scheubel R. J., Zorn H., Silber R. E., Kuss O., Morawietz H., Holtz J., Simm A. Age-dependent depression in circulating endothelial cell progenitor cells in patients undergoing coronary artery bypass grafting. J Am Coll Cardiol. 42, 2073-2080,2003).
Control samples from each subject were examined to validate the study. The samples were obtained in triplicate, on different days and at different hours of the day and examined. No significant variability was found among the subjects.
Subjects were randomly allocated to two groups of five subjects. The first group received Vardenafil 20 mg on the first visit and a placebo one week later. The second group received the placebo on the first visit and Vardenafil 20 mg one week later. […]
Analysis was performed on a sample of 150 μl of peripheral blood extracted from each subject. […] After incubation, the cells were lysed in NH4Cl lysis buffer, washed twice with PBS 1% FCS and then analysed by flow cytometry.
With reference to FIG. 1, forward and side scatter gates were set to include all viable mononuclear cells; into this gate 500,000 events were acquired. […] Cells were scored using a FACSCalibur analyzer (Becton Dickinson Immunocytometry Systems, San Jose, Calif., USA) and data processing using the CellQuest software programmes (Becton Dickinson Immunocytometry Systems).
The percentage of EPCs, in each subject, was calculated by dividing the number of double positive events by the number of total events. The total number of EPCs per volume, of each subject, per volume was calculated by multiplying the percentage of EPCs with the leukocyte count. The data is expressed as mean±SD. Comparisons of the total number of EPCs at baseline, and at two and four hours after the administration of either Vardenafil 20 mg or the placebo were analyzed by the Student's t-test for matched data. […]

[2] = tested on: haematological and bone marrow tissues; conditions: chronic administration; cited from earlier work

SMILES	mean increase in EPCs after Vardenafil administration ([1]; four hours after Vardenafil 20 mg vs baseline)	percentage increase of circulating EPCs with respect to baseline ([1]; four hours after Vardenafil 20 mg)	concentration of EPCs ([1]; four hours after administration of Vardenafil 20 mg, baseline 1849.7±384.3, p<0.001)	bone marrow density (indicated by a decrease in adipose tissue percentage) [2]	lymphomonocytic component count [2]
CCCc1nc(C)c2c(=O)[nH]c(-c3cc(S(=O)(=O)N4CCN(CC)CC4)ccc3OCC)nn12 [Vardenafil]	795.7±176.7 EPCs/Ml	44.1±16.5%	2645.4±509.5 EPC/mL		
CCCOc1ccc(S(=O)(=O)NCCC2CCCN2C)cc1-c1nc2c(CCC)nn(C)c2c(=O)[nH]1 (centres unmarked) [DA-8159]				increase	increase

From patent US20090215782A1, “Use of PDE-5 Inhibitors for Endothelial Repair of Tissues Impaired by Trauma or Disease” (priority 2005, published 2009)
